In the NIST ThermoML archive (doi:10.1021/je100237h):

Conditions: 101.33 kPa, Liquid, Concentric cylinders viscometry

CCOC(=O)CCCCC(=O)OCC [diethyl hexanedioate]
Conditions | viscosity [mPa·s]
283.15 K | 4.57
288.15 K | 3.99
293.15 K | 3.51
298.15 K | 3.12
303.15 K | 2.79
308.15 K | 2.51
313.15 K | 2.28
318.15 K | 2.07
323.15 K | 1.9
328.15 K | 1.75
333.15 K | 1.61
338.15 K | 1.49
343.15 K | 1.39
348.15 K | 1.29
353.15 K | 1.21
358.15 K | 1.13
363.15 K | 1.06
368.15 K | 1
373.15 K | 0.94
